In PMC3914206:

Experiments:
Assay type in all cases: binding
[1] = target: T1, panel of 442 kinases (Homo sapiens, UniProt Q9UKI8); conditions: kinase TLK1; compound concentration 10 µM
T1 construct: purchased KINOMEscan
T1 sequence (Q9UKI8 1-766): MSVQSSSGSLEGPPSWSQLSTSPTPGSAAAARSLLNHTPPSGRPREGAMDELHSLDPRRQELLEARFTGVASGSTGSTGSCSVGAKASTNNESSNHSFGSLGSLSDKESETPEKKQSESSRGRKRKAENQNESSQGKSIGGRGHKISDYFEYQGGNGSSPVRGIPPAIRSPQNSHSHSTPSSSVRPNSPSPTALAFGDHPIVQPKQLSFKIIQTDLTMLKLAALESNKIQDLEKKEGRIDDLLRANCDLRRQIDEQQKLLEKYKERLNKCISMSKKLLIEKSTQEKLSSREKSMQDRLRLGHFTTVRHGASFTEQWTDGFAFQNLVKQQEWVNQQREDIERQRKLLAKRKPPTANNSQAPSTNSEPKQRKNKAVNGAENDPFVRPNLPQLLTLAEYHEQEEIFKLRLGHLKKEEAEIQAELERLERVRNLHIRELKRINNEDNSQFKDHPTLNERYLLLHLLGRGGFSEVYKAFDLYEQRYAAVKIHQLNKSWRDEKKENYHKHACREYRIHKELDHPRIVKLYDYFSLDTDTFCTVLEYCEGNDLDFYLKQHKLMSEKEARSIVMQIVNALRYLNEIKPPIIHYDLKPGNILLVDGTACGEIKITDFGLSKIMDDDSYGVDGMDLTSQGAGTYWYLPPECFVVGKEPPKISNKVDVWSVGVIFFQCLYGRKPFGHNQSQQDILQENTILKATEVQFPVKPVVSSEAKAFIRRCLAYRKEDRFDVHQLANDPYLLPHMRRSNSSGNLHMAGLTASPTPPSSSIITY
Excerpt: (§1) We assessed the selectivity of members of this scaffold using the KINOMEscan methodology across a near comprehensive panel of 442 kinases [[18,27]].

[2] = target: T2, panel of 442 kinases (Homo sapiens, UniProt P42338); conditions: Compound Concentration 10 µM
T2 construct: purchased KINOMEscan
Excerpt: as §1

[3] = target: T3, panel of 442 kinases (Homo sapiens, UniProt P23443); conditions: kinase S6K1; compound concentration 10 µM
T3 construct: purchased KINOMEscan
Excerpt: as §1

T2 sequence (P42338 whole entry): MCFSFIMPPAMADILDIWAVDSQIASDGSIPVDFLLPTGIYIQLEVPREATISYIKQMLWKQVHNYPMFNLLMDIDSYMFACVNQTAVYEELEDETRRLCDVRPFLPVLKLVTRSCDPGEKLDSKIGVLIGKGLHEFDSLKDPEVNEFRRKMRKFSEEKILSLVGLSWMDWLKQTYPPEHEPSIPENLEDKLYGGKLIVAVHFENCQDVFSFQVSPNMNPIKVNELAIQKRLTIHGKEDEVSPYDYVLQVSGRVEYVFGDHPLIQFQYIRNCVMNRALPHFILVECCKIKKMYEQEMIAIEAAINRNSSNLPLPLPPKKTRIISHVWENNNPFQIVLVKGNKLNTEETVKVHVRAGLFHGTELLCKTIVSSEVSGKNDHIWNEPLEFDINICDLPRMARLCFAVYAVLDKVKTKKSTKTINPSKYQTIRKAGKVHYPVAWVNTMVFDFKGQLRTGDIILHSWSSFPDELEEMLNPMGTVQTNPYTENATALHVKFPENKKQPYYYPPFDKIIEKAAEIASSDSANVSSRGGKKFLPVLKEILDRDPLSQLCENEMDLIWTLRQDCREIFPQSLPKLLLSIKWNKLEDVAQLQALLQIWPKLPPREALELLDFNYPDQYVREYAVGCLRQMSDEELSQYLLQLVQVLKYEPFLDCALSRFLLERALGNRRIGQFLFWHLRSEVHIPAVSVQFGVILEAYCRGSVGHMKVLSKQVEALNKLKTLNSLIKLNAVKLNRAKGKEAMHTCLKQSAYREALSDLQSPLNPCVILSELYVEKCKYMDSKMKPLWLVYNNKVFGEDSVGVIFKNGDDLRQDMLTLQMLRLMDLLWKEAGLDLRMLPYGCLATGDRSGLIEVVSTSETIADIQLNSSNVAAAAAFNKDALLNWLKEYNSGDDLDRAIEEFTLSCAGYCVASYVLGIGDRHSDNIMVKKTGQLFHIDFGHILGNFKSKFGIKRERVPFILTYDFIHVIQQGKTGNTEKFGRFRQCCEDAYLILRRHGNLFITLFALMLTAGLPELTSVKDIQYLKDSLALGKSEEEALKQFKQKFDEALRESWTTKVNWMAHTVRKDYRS
T3 sequence (P23443 whole entry): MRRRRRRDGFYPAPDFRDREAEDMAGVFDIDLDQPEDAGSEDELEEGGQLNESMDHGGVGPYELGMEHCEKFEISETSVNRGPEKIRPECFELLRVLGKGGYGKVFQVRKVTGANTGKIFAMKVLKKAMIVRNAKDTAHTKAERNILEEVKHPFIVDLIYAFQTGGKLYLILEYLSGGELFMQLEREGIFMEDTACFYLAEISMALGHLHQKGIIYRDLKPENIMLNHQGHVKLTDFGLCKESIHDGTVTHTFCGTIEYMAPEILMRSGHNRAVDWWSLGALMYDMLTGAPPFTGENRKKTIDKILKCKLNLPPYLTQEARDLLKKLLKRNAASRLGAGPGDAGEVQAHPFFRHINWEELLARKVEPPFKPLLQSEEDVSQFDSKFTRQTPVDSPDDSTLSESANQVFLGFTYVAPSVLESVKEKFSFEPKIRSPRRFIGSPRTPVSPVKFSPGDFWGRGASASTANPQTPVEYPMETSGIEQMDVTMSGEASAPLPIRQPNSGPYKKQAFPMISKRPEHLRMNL

COc1cc(C(=O)N2CCC(N3CCN(C)CC3)CC2)ccc1Nc1ncc2c(n1)N(C)c1ccccc1C(=O)N2C [15 (LRRK2-IN-1)]
% Ctrl, TLK1 [1]: 100 % Ctrl
KINOMEscan: PIK3CB [2]: 96
% Ctrl, S6K1 [3]: 100 % Ctrl

COc1cc(C(=O)N2CCC(N3CCN(C)CC3)CC2)ccc1Nc1ncc2c(n1)N1CCc3cccc(c31)C(=O)N2C [Compound 24]
KINOMEscan: PIK3CB [2]: 71
% Ctrl, S6K1 [3]: 100 % Ctrl

COc1cc(C(=O)N2CCC(N3CCN(C)CC3)CC2)ccc1Nc1ncc2c(n1)N(C1CCCC1)c1ccccc1C(=O)N2C [Compound 25, 11-cyclopentyl-2-((2-methoxy-4-(4-(4-methylpiperazin-1-yl)piperidine-1-carbonyl)phenyl)amino)-5-methyl-5H-benzo[e]pyrimido[5,4-b][1,4]diazepin-6(11H)-one]
% Ctrl, TLK1 [1]: 74 % Ctrl
KINOMEscan: PIK3CB [2]: 87
% Ctrl, S6K1 [3]: 100 % Ctrl

CCOc1cc(C(=O)N2CCC(N3CCN(C)CC3)CC2)ccc1Nc1ncc2c(n1)N(C1CCCC1)c1ccccc1C(=O)N2C [Compound 26]
% Ctrl, TLK1 [1]: 90 % Ctrl
KINOMEscan: PIK3CB [2]: 100
% Ctrl, S6K1 [3]: 100 % Ctrl
